The text below walks through data of patent publication US6440980B1, “Synergistic inhibition of viral replication by long-chain hydrocarbons and nucleoside analogs” (Avanir Pharmaceuticals, priority 1996, dated 2002).

Data set [1] deals with HSV-2. Briefly: Cutaneous HSV-2 model in hairless guinea pigs, combination cream (Example 15). Particulars: 96 hours post-HSV-2-inoculation; cream two times daily; untreated mean 27 vesicles. It counts as in vivo.
Data set [2] concerns HSV-1. Briefly: HSV-1 PFU production in Vero cell cultures. It counts as cell-based, HSV-1 (MacIntyre strain).
The subject of data set [3] is Varicella Zoster Virus (VZV). Kind of data set: VZV infectious center assay in MRC-5 cells. The format is cell-based, human varicella zoster virus (Ellen strain). Particulars: for EC50: Human alphaherpesvirus 3, MRC5, read-out: ACV Efficacy EC50 (μM), VZV; for EC90: Human alphaherpesvirus 3, MRC5, read-out: ACV Efficacy EC90 (μM), VZV.
In another data set the test system is Cytomegalovirus (CMV). Briefly: CMV infectious center assay in MRC-5 cells. The format is cell-based, human cytomegalovirus (Towne strain). Particulars: for EC50: Human betaherpesvirus 5, MRC5, read-out: ACV Efficacy EC50 (μM), CMV; for EC90: Human betaherpesvirus 5, MRC5, read-out: ACV Efficacy EC90 (μM), CMV.
A further data set concerns vaccinia virus. Briefly: microbe, parasite or virus in culture. It counts as cell-based, vaccinia virus (WR strain). Particulars: with or without n-docosanol.
The subject of data set [4] is Vero cells.
For data set [5] the following is noted: cited from earlier work.
Data set [6] relates to HSV-2. Kind of data set: Inhibition of HSV-2 plaque formation in Vero cells. Particulars: for EC50: Human alphaherpesvirus 2, Vero.
In data set [7] the test system is HSV-2. Briefly: Topical treatment of HSV-2 in guinea pig model, number of vesicles (Example 9). The format is in vivo, hairless guinea pigs. Particulars: mean; for Number of Vesicles Day 2: 48 hr post-inoculation; for Number of Vesicles Day 3: 72 hr post-inoculation; for Number of Vesicles Day 4: 96 hr post-inoculation.
The conditions of data set [8]: male, hairless, guinea pig, in vivo, 2 day.
In data set [9] the test system is Vero cells. Kind of data set: Cytotoxicity to Vero cells (monolayer integrity, trypan blue exclusion).
Data set [10] relates to HSV-2. Briefly: Transmucosal suppository treatment of HSV-2 infection (Example 13). The format is in vivo, human. Particulars: 8 mM brassidyl alcohol suppositories. How it is done:
Suppositories containing 8 mM brassidyl alcohol in a nonionic detergent suspension, prepared essentially as in Examples 1 and 5, are formulated by adding anhydrous dextrose (300-400 mg/suppository), vegetable starch (300-400 mg/suppository) and magnesium stearate (5-10 mg/suppository) to produce a mixture that is compressed into suppositories (1-10 g per suppository) for vaginal insertion.
Fifteen HSV-2 infected women with past histories of vaginal and/or perivaginal herpes lesions are provided with the suppositories and instructed to use one to four suppositories per day when herpes lesions or discomfort associated with herpes lesions are detected. The women are instructed to record their observations about the duration of the active infection, the severity of the lesions (erythema, papule, vesicle, edema or scab phases), the relative numbers of lesions detected to past occurrences of active infection, and the subjective degrees of pain or discomfort associated with the active infection episode. The women are instructed to use the suppositories as soon as active infection or symptoms of active infection are detected. The women have a past mean of 12 days duration for lesions that develop into vesicles if untreated.

Data set [11] has as its system HSV-1. Briefly: Inhibition of HSV-1 plaque formation in Vero cells (brassidyl alcohol, TETRONIC-908 suspension). Particulars: Human alphaherpesvirus 1, Vero, read-out: Percent Inhibition of Plaque Formation.
For the next data set, the system named is all cell lines tested. Briefly: Cytotoxicity in mammalian cell cultures. Particulars: surfactant suspensions. The source says:
Three assays were used to quantitate the effects of aliphatic alcohols on cell survival and proliferation: 1) counting cells with a hemocytometer and determining the number of cells that exclude trypan blue; 2) measuring the incorporation of ^3H-thymidine into cellular DNA by adding ^3H-thymidine (from New England Nuclear) to the culture medium, lysing the cells with water and harvesting the DNA onto filter paper; and 3) measuring total cellular protein using a sulforhodamine assay adapted for use in 96-well microtiter plates (Skehan et al., J. Natl. Cancer Inst. […] All of these methods are well known cell viability and cytotoxicity assays.

The next data set concerns EBV. Briefly: Systemic treatment of EBV infection, infectious mononucleosis (Example 14). The format is in vivo, human. Particulars: 10 mM n-hexacosanol suspension injected. How it is done:
Ten young adults (age 14-19 yr) diagnosed with infectious mononucleosis (sore throat, fever, malaise, generalized lymphadenopathy, atypical mononucleosis T-lymphocytes in peripheral blood, a total white cell count of 12,000-18,000 in the blood) are treated systemically with a sterile aqueous suspension of a nonionic detergent surfactant containing 10 mM n-hexacosanol, prepared essentially as in Example 1. The suspension is injected (intramuscular or intravenous) in dosages of 0.1 mg/kg to 0.02 gm/kg of the aliphatic alcohol administered by a physician under clinical conditions. The symptoms of the individuals are then monitored daily for one week and weekly for three months for indications of infectious mononucleosis. All of the individuals test EBV-positive at the end of the study period as determined by detection of anti-EBV antibodies in their serum using standard immunoassays.

By EC90 is commonly meant the concentration needed for an effect of 90%. For orientation: inhibition means the share of the control response that was lost under treatment.

Where two headings read alike, the source gives them in different places.

On to `Nc1nc2c(ncn2COCCO)c(=O)[nH]1` [ACV, 9-(2-hydroxy)-ethoxymethyl-guanine], for which, in the data set with HSV-2 [1], the “reduction of mean vesicle numbers” value is listed as 50%. The “lowering of the ACV EC90” value in the data set on HSV-1 [2] (3.3 mM n-docosanol) was 17 fold. Further, the “reduction of the ACV EC90” value with HSV-1 [2] (10 mM n-docosanol) amounted to 40 fold. Also, the “reduction of EC90 by n-docosanol” value in the data set with HSV-1 [2] (15 mM n-docosanol) came out at 21 fold. In addition, the EC90 in the data set with HSV-1 [2] (15 mM n-docosanol, 500 PFU/culture, three days, read-out: EC90 for inhibition of HSV-1 PFU production in the presence of n-docosanol) was 0.9 µM; in the data set on HSV-1 [2] (Human alphaherpesvirus 1, Vero, 72 h, control cultures without n-docosanol, 500 PFU/culture, three days, read-out: EC90 for inhibition of HSV-1 PFU production, drug used alone) it was 19 µM; in the data set with HSV-1 [2] (Human alphaherpesvirus 1, Vero, read-out: ACV EC90 for inhibition of HSV-1 production, 30 mM n-docosanol), less than 0.1 µM; in the data set with HSV-1 [2] (Human alphaherpesvirus 1, Vero, read-out: ACV EC90 for inhibition of HSV-1 production, medium only or medium plus PLURONIC F-68, 500 PFU per culture, 72 hours) it was 10 µM; in data set [3] (Medium Only) it was 10 µM; in data set [3] (with Pluronic F-68), 10 µM. The EC90 in data set [3] (with n-Docosanol, 3.3 mM) is 6 µM; in data set [3] (with n-Docosanol, 10 mM) it was 4 µM; in data set [3] (with n-Docosanol, 30 mM), 2 µM; in the data set with Cytomegalovirus (CMV) (Medium Only), 250 µM; in the data set with Cytomegalovirus (CMV) (with Pluronic F-68), 250 µM; in the data set with Cytomegalovirus (CMV) (with n-Docosanol, 3.3 mM) it was 35 µM. The EC90 is 25 µM with Cytomegalovirus (CMV) (with n-Docosanol, 10 mM) and 6 µM in the data set with Cytomegalovirus (CMV) (with n-Docosanol, 30 mM). The EC50 was 3 µM in data set [3] (Medium Only); 3 µM in data set [3] (with Pluronic F-68); 1 µM in data set [3] (with n-Docosanol, 3.3 mM); 0.6 µM in [3] (with n-Docosanol, 10 mM); 0.3 µM in data set [3] (with n-Docosanol, 30 mM); 30 µM in the data set on Cytomegalovirus (CMV) (Medium Only). For the same compound, the EC50 came to 30 µM in the data set on Cytomegalovirus (CMV) (with Pluronic F-68); 8 µM with Cytomegalovirus (CMV) (with n-Docosanol, 3.3 mM); 2 µM in the data set with Cytomegalovirus (CMV) (with n-Docosanol, 10 mM); 2 µM in the data set on Cytomegalovirus (CMV) (with n-Docosanol, 30 mM); 0.005 mM in the data set on HSV-2 [6] (44 h, read-out: ACV 50% effective concentration (EC50), plaque formation, medium alone, 50 PFU HSV-2, scored 44 hours); 0.0002 mM in the data set on HSV-2 [6] (read-out: ACV EC50, plaque formation). Besides, in the data set with Cytomegalovirus (CMV) (CMV, n-docosanol concentrations of 10-30 mM), the “reduction of ACV EC50's and EC90's” value worked out at 90%. In the data set on vaccinia virus, the “sensitivity of vaccinia virus to ACV (in words)” value is recorded as “insensitive”. Also, in the data set on Vero cells [4], the “cellular toxicity, such as cytoplasmic vacuoles” value is on record as “not observed”. Besides, in [5] (acyclovir 5 mg/kg by 1-hour infusions every 8 hours), the “steady state acyclovir plasma concentration” value was “approximately 10 μg/ml”. For the same compound, the “maximum average acyclovir plasma concentration” value in data set [5] (oral acyclovir 500 mg 5 times a day) is “approximately 0.7 μg/ml”. Also, the “enhancement of ACV activity” value in the data set with HSV-2 [6] (3 mM n-docosanol) is 25 fold.
On to `CCCCCCCCCCCCCCCCCC(=O)O` [stearic acid], for which the “Number of Vesicles Day 2” value with HSV-2 [7] (10% w/w cream topically 3X/day from 24 hr post-inoculation) and in the data set with HSV-2 [7] (10% w/w cream topically 5X/day) was 49 each time. Besides, the figures for the “Number of Vesicles Day 3” value in the data set on HSV-2 [7] (10% w/w cream topically 3X/day) and in the data set with HSV-2 [7] (10% w/w cream topically 5X/day) were 17 and 13, respectively. The results for the “Number of Vesicles Day 4” value in the data set on HSV-2 [7] (10% w/w cream topically 3X/day) and in the data set on HSV-2 [7] (10% w/w cream topically 5X/day) were 11 and 5, respectively. For the same compound, the “Irritation Score Day 2” value in [8] came to 0. In the data set with HSV-2 [6] (11 μM and 22 μM in TETRONIC 908, 3.5 μM in ethanol), the “inhibition of HSV-2 plaque formation relative to infected control cell cultures” value is recorded as “less than 10%”. The “cytotoxicity by microscopic examination” value in the data set on Vero cells [9] (11 μM and 22 μM suspensions in TETRONIC 908 and 3.5 μM solution in ethanol) was “No apparent toxicity”; with Vero cells [9] (44 μM TETRONIC 908 suspension and 35 μM ethanol solution), “Moderate toxicity”; with Vero cells [9] (suspensions and solutions of 88 μM to 350 μM) it was “toxic”.
On to `CCCCCCCC/C=C/CCCCCCCCCCCCO` [brassidyl alcohol, trans-13-docosen-1-ol], for which the “mean duration of the HSV-2 active infection, five women” value in the data set on HSV-2 [10] was in the range of 3 to 4 days. In the data set with HSV-1 [11], the inhibition at 1000 µM came out at 27%, the inhibition at 2000 µM was found to be 35%, the inhibition at 4000 µM was found to be 44% and the inhibition at 8000 µM worked out at 48%.
On to `CCCCCCCCCCCCCCCCCCCCCCCCCCO` [n-hexacosanol], for which, in the data set with all cell lines tested, the “cytotoxicity of the suspensions (in words)” value is given as “same minimal level of cytotoxicity”. For the same compound, in the data set on EBV, the “time to decrease in atypical mononucleosis T-lymphocytes in peripheral blood” value is reported as “four”. The EC50 in the data set on HSV-2 [6] (read-out: 50% Inhibition Concentration (mM)) was found to be 8.4 mM.
